Here are results for 3 molecules from patent US6319929A, “Suksdorfin analogs, compositions thereof, and methods for making and using thereof” (priority 1998, dated 2001).

For experiment [1], the system named is HIV-1 replication in fresh elutriated monocytes. The experiment in a line: HIV-1 infection of primary elutriated monocytes (p24 antigen). In kind it is cell-based. From the text:
In order to determine if compound 16 suppressive activity was limited to only fresh T cells infected with HIV-1, elutriated monocytes were infected with HIV-1 and then cultured with various concentrations of compound 16 or AZT. […] This illustrates that the effect of the drμg is not only limited to T cells but also can effect virally infected monocytes.

The test system of the next experiment is uninfected H9 cells. Nature of the experiment: Toxicity to uninfected H9 cells (cell growth). In kind it is cell-based. The conditions noted are these: Homo sapiens. As to the method:
HIV inhibition assay. The HIV inhibition was measured as described herein. Briefly, H9 cells, a T cell line, (3.5×10^6 cells/ml) were incubated in the presence or absence of HIV-1 (IIIB strain, 0.01-0.1 TCID50 /cell) for 1 hour at 37° C. Cells were washed thoroughly and resuspended at a final concentration of 2×10^5 cells/ml in the presence or absence of compound. After incubation for 3-4 days at 37° C., the cell density of uninfected cultures was determined by cell count to assess toxicity of the drug. An aliquot of each cell-free supernatant was assayed by p24 antigen ELISA to quantitate the amount of HIV-1 present in the infected cultures. Test compounds were considered to be active at a particular concentration if p24 antigen levels were less than 70% of infected, untreated controls and were nontoxic to uninfected H9 cells.
(§1) HIV Growth Inhibition Assay: The T cell line, H9, and the promonocytic cell line, U937, were maintained separately in continuous culture with complete medium (RPMI 1640 and […] fetal calf serum (FCS) at 5% CO2 and 37° C. Cell lines were used in experiments only when in log phase of growth; whereas, uninfected peripheral blood mononuclear cells (PBMCs) were first stimulated with PHA (1 μg/ml) for 3 days. All cell targets were incubated with HIV-1 (IIIB isolate, TCID50 10 ^4 IU/mi, at a multiplicity of infection of 0.1-0.01 IU/cell) for 1 hour at 37° C. and 5% CO2. The cell lines and PBMCs were washed thoroughly to remove unabsorbed virions and resuspended at 4×10^5 cells/ml in complete medium or complete medium with 10% v/v interleukin […] IL-2, respectively. Aliquots ( ml) were placed in wells of 24-well culture plates containing an equal volume of test compound (diluted in the appropriate culture medium). After incubation for 4 days at 37° C., cell density of uninfected cultures was determined by counting cells in a Coulter counter to assess toxicity of the test compound. A p24 antigen ELISA assay was used to determine the level of virus released in the medium of the HIV-infected cultures. The p24 antigen assay uses a HIV-1 anti-p24 specific monoclonal antibody as the capture antibody coated-on 96-well plates. Following a sample incubation period, rabbit serum containing antibodies for HIV-1 p24 is used to tag any p24 "captured" onto the microtiter well surface. Peroxidase conjugated goat anti-rabbit serum is then used to tag HIV-1 p24 specific rabbit antibodies which have complexed with captured p24. […] The cut-off for the p24 ELISA assay is 12. pg/ml. P24 in the culture medium was quantitated against a standard curve containing known amounts of p24. The effective (EC50) and inhibitory (IC50) concentrations (for anti-HIV activity and cytotoxicity, respectively) were determined graphically. Both the EC50 and IC50 values were calculated by plotting drug concentration versus percent inhibition, and then identifying a 50% inhibition value from the graph.

Experiment [2] relates to HIV-1 replication in U937 cells. Nature of the experiment: HIV-1 replication in acutely infected promonocytic U937 cells. In kind it is cell-based, HIV-1 (IIIB). Particulars: for EC50 / pEC50: Human immunodeficiency virus 1, U-937; for pEC50 / suppression of acute HIV-1 replication in U937 cells (in words): U937 cells. As to the method:
(§2) Suksdorfin was also tested on an acute HIV-1 infection of the promonocytic cell line, U937. This was done again to determine drug specificity but this time on a monocytic cell line.
(§3) As part of efforts to biologically characterize 16 the monocytic cell line, U937 and peripheral blood mononuclear cells (PBMCs) were separately infected with HIV-1 and then had various concentrations of the analog added for 4 days of culture.
as §1

Experiment [3] relates to HIV-1 replication in PBMCs. The experiment in a line: HIV-1 replication in acutely infected PBMCs. In kind it is cell-based, HIV-1 (IIIB). The conditions noted are these: for suppression of acute HIV-1 replication in PBMCs (in words): fresh PBMCs. As to the method:
Suksdorf in was tested on peripheral blood mononuclear cells (PBMCS) which were stimulated for 3 days with PHA (1 .parallel.g/ml). The cells were collected and then infected with the 20X stock HIV-1 (IIIB). This is the same virus that is used in the drug screening assay. PBMCs were used for the following reasons: (1) It is another type of T cell infection. (2) PMBCs are freshly isolated cells not a cell line as are H9 cells. (3) We need to know if the effects of suksdorfin were limited to only an acute HIV-1 infection of a T cell line such as H9 cells. After the cells were infected with HIV-1, the cells were washed and then placed in medium with the cytokine, interleukin 2 (IL-2). IL-2 is needed to keep the cells activated which is necessary also for virus replication.
as §3, §1

Experiment [4] deals with HIV-2 replication in HUT-78 cells. The experiment in a line: Suppression of virus replication during HIV-2 infection of HUT-78 cells (reverse transcriptase assay). In kind it is cell-based. The source says: During this experiment, HIV-2 was used. The basic assay system is identical to that used for HIV-1 except that a different virus stock was used and rather than a p24 antigen ELISA determination a reverse transcriptase assay was used to detect the presence of the virus.

A further experiment concerns U937 cells. Nature of the experiment: Toxicity to uninfected U937 cells. Particulars: Homo sapiens, U-937; U937 cell line. In kind it is cell-based. As to the method: as §2
HIV Growth Inhibition Assay: The T cell line, H9, and the promonocytic cell line, U937, were maintained separately in continuous culture with complete medium (RPMI 1640 and […] fetal calf serum (FCS) at 5% CO2 and 37° C. Cell lines were used in experiments only when in log phase of growth; whereas, uninfected peripheral blood mononuclear cells (PBMCs) were first stimulated with PHA (1 μg/ml) for 3 days. All cell targets were incubated with HIV-1 (IIIB isolate, TCID50 10 ^4 IU/mi, at a multiplicity of infection of 0.1-0.01 IU/cell) for 1 hour at 37° C. and 5% CO2. The cell lines and PBMCs were washed thoroughly to remove unabsorbed virions and resuspended at 4×10^5 cells/ml in complete medium or complete medium with 10% v/v interleukin (Pettinato, et al. J. Amer. Pharm. Asso. […] After incubation for 4 days at 37° C., cell density of uninfected cultures was determined by counting cells in a Coulter counter to assess toxicity of the test compound. […] P24 in the culture medium was quantitated against a standard curve containing known amounts of p24. The effective (EC50) and inhibitory (IC50) concentrations (for anti-HIV activity and cytotoxicity, respectively) were determined graphically. […]

[5] abbreviates: Human immunodeficiency virus 1, PBMC, PBMCs.

pEC50, pIC50: −log10 of the molar value. Where “and” joins values, the source holds several entries; their conditions need not be identical. Identical values can stand only once. Like-named read-outs stand apart in the source and are kept apart here.

As for `Cc1cn([C@H]2C[C@H](N=[N+]=[N-])[C@@H](CO)O2)c(=O)[nH]c1=O` [AZT, azidothymidine, reference compound], the p24 antigen in experiment [1] (Day 17, 0.0001 μg/ml) is 83 pg/mL; in experiment [1] (Day 17, 0.001 μg/ml) it was 100 pg/mL; in experiment [1] (Day 17, 0.01 μg/ml), 7 pg/mL; in experiment [1] (Day 17, 0.1 μg/ml), 5 pg/mL; in experiment [1] (Day 17, 1 μg/ml) it was 2 pg/mL; in experiment [1] (Day 17, 10 μg/ml) it was 0.1 pg/mL. For the same molecule, the p24 antigen came to 0 pg/mL in experiment [1] (Day 28, 0.0001 μg/ml); 0 pg/mL in experiment [1] (Day 28, 0.001 μg/ml); 0 pg/mL in experiment [1] (Day 28, 0.01 μg/ml); 0 pg/mL in experiment [1] (Day 28, 0.1 μg/ml); 0 pg/mL in experiment [1] (Day 28, 1 μg/ml); 0 pg/mL in experiment [1] (Day 28, 10 μg/ml). Further, the pIC50 in the experiment with uninfected H9 cells (H9, Table 3, H9 lymphocytes) was 2.70; with uninfected H9 cells (H9, Table 17, uninfected H9 cell growth), 2.73.

Regarding `CC1(C)Oc2ccc3ccc(=O)oc3c2[C@@H](OC(=O)[C@@]23CC[C@@](C)(C(=O)O2)C3(C)C)[C@H]1OC(=O)[C@@]12CC[C@@](C)(C(=O)O1)C2(C)C` [Compound 16, 3',4'-Di-O-(-)-Camphanoyl-(+)-cis-Khellactone], the EC50 in experiment [2] (U937 cell line) is 0.00128 µg/mL; in experiment [3] (setting [5]), 0.018 µg/mL and 29 nM. In experiment [2], this molecule gave a pEC50 of 8.68. The “suppression of acute HIV-1 replication in U937 cells (in words)” value in experiment [2] is “suppression detected”. Moreover, in experiment [3], the “suppression of acute HIV-1 replication in PBMCs (in words)” value is recorded as “suppression detected”. In experiment [4], the “effect on HIV-2 replication (in words)” value was “no effect on the virus replication of HIV-2”. In experiment [1], the “suppression of HIV-1 replication in fresh elutriated monocytes (in words)” value is given as “able to suppress HIV-1 replication in fresh elutriated monocytes”. Further, the p24 antigen in experiment [1] (Day 17, 0.0000102 μg/ml) is 49 pg/mL; in experiment [1] (Day 17, 0.0000512 μg/ml) it was 52 pg/mL; in experiment [1] (Day 17, 0.000256 μg/ml), 70 pg/mL; in experiment [1] (Day 17, 0.00128 μg/ml), 306 pg/mL; in experiment [1] (Day 17, 0.0064 μg/ml), 66 pg/mL; in experiment [1] (Day 17, 0.032 μg/ml), 94 pg/mL. In addition, the p24 antigen in experiment [1] (Day 17, 0.16 μg/ml) stood at 7 pg/mL; in experiment [1] (Day 17, 0.8 μg/ml), 6 pg/mL; in experiment [1] (Day 17, 4 μg/ml) it was 6 pg/mL; in experiment [1] (Day 17, 20 μg/ml), 5 pg/mL; in experiment [1] (Day 28, 0.0000102 μg/ml) it was 1536 pg/mL; in experiment [1] (Day 28, 0.0000512 μg/ml), 824 pg/mL. Besides, the p24 antigen in experiment [1] (Day 28, 0.000256 μg/ml) stood at 760 pg/mL; in experiment [1] (Day 28, 0.00128 μg/ml), 208 pg/mL; in experiment [1] (Day 28, 0.0064 μg/ml), 584 pg/mL; in experiment [1] (Day 28, 0.032 μg/ml), 0 pg/mL; in experiment [1] (Day 28, 0.16 μg/ml), 0 pg/mL; in experiment [1] (Day 28, 0.8 μg/ml), 0 pg/mL. Moreover, the p24 antigen in experiment [1] (Day 28, 4 μg/ml) amounted to 0 pg/mL; in experiment [1] (Day 28, 20 μg/ml), 0 pg/mL.

`CC(=O)O[C@@H]1[C@H](OC(=O)CC(C)C)c2c(ccc3ccc(=O)oc23)OC1(C)C` [Suksdorfin, suksdorfin]: the EC50 in experiment [2] (U937 cell line) turned out to be 0.58 µg/mL; in experiment [3] (Human immunodeficiency virus 1, PBMC, PBMCs, Table 6), 1.5 µg/mL. Besides, the figures for the pEC50 in experiment [2] and in experiment [3] (setting [5]) were 5.82 and 5.41, respectively. Besides, the “Therapeutic Index” value in experiment [2] (U937 cell line, 5760 min) is given as > 34.5. In experiment [2], the “suppression of acute HIV-1 replication in U937 cells (in words)” value is on record as “can suppress an acute HIV-1 replication”. For the same molecule, in experiment [2] (U937 versus PBMCs), the “EC50 from U937 cells relative to that for PBMCs” value is on record as “approximately one third”. The “suppression of acute HIV-1 replication in PBMCs (in words)” value in experiment [3] is “can suppress an acute HIV-1 replication”. For the same molecule, the IC50 is > 20 µg/mL with U937 cells and > 52 µM in the experiment on uninfected H9 cells (H9, Table 14, concentration which inhibits uninfected cell growth by 50%, read-out: IC50 (μM)^a). The pIC50 was < 4.28 in the experiment with uninfected H9 cells (H9, Table 17, uninfected H9 cell growth, read-out: IC50) and < 4.28 in the experiment on uninfected H9 cells (H9, concentration which inhibits uninfected cell growth by 50%, read-out: IC50).

As usually defined, the pIC50 is −log10 of the IC50, conventionally taken in molar units. As a reminder, the EC50 is the concentration needed to bring the measured effect to its halfway point. A lower EC50 goes with greater potency. The pEC50 is the negative decadic logarithm of the EC50, by convention in mol/L. Broadly, the IC50 is the midpoint of a concentration-inhibition curve.
